Assay results from PMC4641580 (ACS Medicinal Chemistry Letters, 2015).

Columns and labels:
[1] = test system: Mycobacterium tuberculosis PtpB; type: biochemical; conditions: read-out: IC50 PtpB
[2] = target: T1, human PTP1B (Homo sapiens, UniProt P18031); type: biochemical
T1 sequence (P18031 1-435): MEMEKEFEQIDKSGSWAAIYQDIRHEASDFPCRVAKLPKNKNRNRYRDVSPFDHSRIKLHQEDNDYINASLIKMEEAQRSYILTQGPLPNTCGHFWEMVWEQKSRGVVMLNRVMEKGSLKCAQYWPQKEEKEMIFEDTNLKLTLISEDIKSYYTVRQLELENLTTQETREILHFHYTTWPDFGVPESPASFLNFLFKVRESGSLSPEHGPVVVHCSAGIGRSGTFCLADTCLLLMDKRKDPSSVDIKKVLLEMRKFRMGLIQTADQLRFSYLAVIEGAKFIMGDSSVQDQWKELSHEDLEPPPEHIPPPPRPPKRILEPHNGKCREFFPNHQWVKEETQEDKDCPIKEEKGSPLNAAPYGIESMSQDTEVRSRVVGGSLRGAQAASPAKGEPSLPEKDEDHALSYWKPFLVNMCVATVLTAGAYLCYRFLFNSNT

[3] = target: T2, human LYP (Homo sapiens, UniProt Q9Y2R2); type: biochemical
T2 sequence (Q9Y2R2 1-807): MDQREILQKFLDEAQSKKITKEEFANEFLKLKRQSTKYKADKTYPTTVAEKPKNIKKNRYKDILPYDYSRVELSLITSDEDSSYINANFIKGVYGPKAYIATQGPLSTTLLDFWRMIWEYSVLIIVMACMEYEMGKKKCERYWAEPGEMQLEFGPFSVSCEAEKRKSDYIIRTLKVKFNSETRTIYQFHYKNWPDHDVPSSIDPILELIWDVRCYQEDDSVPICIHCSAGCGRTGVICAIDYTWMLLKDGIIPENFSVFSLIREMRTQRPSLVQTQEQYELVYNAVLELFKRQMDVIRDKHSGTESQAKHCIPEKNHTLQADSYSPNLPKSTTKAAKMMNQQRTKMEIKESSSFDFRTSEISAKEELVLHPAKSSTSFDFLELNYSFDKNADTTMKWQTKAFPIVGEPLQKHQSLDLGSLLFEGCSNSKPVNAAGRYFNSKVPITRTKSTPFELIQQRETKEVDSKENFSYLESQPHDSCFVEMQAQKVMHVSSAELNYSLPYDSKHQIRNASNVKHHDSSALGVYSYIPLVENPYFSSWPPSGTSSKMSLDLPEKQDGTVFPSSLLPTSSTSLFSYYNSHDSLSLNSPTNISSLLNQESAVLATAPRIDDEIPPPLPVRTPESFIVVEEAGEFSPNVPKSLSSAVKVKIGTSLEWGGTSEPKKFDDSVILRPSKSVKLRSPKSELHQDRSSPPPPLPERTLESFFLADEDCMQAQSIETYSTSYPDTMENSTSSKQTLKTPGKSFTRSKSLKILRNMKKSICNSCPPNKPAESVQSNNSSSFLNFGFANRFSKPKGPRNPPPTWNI

[4] = target: T3, human PTP-PEST (Homo sapiens, UniProt Q05209); type: biochemical
T3 sequence (Q05209 1-780): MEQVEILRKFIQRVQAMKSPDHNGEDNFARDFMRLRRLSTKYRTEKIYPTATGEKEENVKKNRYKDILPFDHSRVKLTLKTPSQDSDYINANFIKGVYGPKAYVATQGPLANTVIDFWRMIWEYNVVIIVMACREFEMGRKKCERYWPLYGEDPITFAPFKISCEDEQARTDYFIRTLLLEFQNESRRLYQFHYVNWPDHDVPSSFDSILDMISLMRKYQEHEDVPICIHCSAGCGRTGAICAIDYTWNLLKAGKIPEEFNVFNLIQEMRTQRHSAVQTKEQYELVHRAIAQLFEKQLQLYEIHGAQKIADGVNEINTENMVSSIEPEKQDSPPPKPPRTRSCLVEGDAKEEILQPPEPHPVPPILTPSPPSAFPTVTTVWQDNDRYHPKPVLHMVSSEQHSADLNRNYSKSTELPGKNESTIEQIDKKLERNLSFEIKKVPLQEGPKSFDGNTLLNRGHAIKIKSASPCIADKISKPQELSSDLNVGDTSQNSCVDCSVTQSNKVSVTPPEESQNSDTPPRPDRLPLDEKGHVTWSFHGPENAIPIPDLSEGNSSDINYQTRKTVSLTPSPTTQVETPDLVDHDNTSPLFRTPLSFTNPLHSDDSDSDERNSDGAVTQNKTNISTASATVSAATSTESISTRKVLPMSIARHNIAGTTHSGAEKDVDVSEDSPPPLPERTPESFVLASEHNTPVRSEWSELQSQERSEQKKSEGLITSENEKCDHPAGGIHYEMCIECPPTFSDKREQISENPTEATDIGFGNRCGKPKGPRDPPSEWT

[5] = target: YopH (Yersinia enterocolitica, UniProt P15273); type: biochemical; conditions: read-out: Ki against YopH
YopH, sequence (P15273 whole entry, looked up): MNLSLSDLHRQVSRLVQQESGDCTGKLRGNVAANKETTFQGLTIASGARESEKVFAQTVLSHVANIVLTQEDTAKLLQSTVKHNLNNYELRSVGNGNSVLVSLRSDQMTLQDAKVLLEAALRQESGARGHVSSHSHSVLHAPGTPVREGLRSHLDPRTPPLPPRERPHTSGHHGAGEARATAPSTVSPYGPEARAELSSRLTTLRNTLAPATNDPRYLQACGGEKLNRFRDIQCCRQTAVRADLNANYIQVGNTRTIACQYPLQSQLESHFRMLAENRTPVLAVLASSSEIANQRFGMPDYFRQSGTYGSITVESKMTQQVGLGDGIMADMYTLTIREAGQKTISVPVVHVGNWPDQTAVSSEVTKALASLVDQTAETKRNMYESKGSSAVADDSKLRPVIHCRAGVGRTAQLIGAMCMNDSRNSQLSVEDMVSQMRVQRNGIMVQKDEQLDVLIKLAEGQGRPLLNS

[6] = target: Mycobacterium tuberculosis PtpA (Mycobacterium tuberculosis, UniProt P9WIA1)
Mycobacterium tuberculosis PtpA, sequence (P9WIA1 whole entry): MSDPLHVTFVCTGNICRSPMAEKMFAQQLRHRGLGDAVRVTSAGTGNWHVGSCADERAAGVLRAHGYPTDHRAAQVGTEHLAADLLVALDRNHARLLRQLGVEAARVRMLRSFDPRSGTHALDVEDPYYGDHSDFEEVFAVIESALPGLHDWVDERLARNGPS

[O]=[V]([S]c1cccc[n+]1[O-])[S]c1cccc[n+]1[O-] [Compound 3, Bis(pyridine-2-thiol N-oxide) oxovanadium(IV)]
IC50 [1]: 52.6 ± 1.56 µM | SI (IC50PTP/IC50YopH) PTP1B [2]: 2.7 | IC50 ([2]; read-out: IC50 PTP1B): 0.78 ± 0.02 µM | SI (IC50PTP/IC50YopH) LYP [3]: 97.6 | IC50 ([3]; read-out: IC50 LYP): 28.3 ± 1.71 µM | SI (IC50PTP/IC50YopH) PTP–PEST [4]: 142.4 | IC50 ([4]; read-out: IC50 PTP–PEST): 41.3 ± 3.19 µM | Ki [5]: 0.19 µM | SI (IC50PTP/IC50YopH) PtpA [6]: 31.5 | IC50 ([6]; read-out: IC50 PtpA): 9.12 ± 0.26 µM
